In patent US8501241B1, “Treating cancer with a whole, leech saliva extract” (priority 2012, dated 2013):

Legend:
[1] = system: Cryptococcus neoformans ATCC90112; assay: Kirby-Bauer disc diffusion; type: cell-based; conditions: reference antibiotic disc, 100 units/disc
Source text: (§1) Experimental procedures include the following steps: • 1.

[2] = system: Candida albicans ATCC10231; assay: Kirby-Bauer disc diffusion; type: cell-based; conditions: reference antibiotic disc, 100 units/disc
Source text: as §1

[3] = Mortality, behaviour and acute toxicity signs in injected diabetic rats; type: in vivo, rat (Sprague Dawley); conditions: insulin 20 units/kg b.w
[4] = system: induced-diabetic rats; assay: Antihyperglycemic activity: fall in fasting blood glucose in alloxan-induced diabetic rats; type: in vivo, rat (Sprague Dawley)

Row | Molecule | Zone of inhibition (mm) C. neoformance [1] [mm] | Zone of inhibition (mm) C. albicans [2] [mm] | hypoglycemia and mortality [3] | fasting blood glucose (FBG) ([4]; after two hours of injection) | difference between normal rats and treated diabetic rats ([4]; at either dose) | fasting blood glucose (FBG) ([4]; insulin 10 units/kg b.w, after 8 hours of treatment)
1 | C[C@@H]1[C@H](O)[C@@H](C)/C=C/C=C/CC/C=C/C=C/C=C/C=C/C(O[C@H]2O[C@H](C)[C@@H](O)[C@H](N)[C@@H]2O)CC2O[C@](O)(CC(O)C(O)CCC(O)CC(O)CC(O)CC(=O)O[C@H]1C)CC(O)C2C(=O)O (stereo partly drawn) [Nystatin, nystatin] | 9 | 10 |  |  |  | 
2 | insulin: insulin from bovine pancreas (≧27 units/mg) |  |  | hypoglycemic condition in all rats leading to the death of one rat | sharp significant decrease (p<0.001) | No significant difference | returned to the diabetic state
